Assay results taken from publication doi:10.1101/2021.04.08.439011v1 (biorxiv, 2021).

Assays:
Details in all cases: 0.1 µM; binder
ACVR2B = ACVR2B (Homo sapiens, UniProt Q13705)
AMPK-alpha1 = AMPK-alpha1 (Homo sapiens, UniProt Q13131)
ANKK1 = ANKK1 (Homo sapiens, UniProt Q8NFD2)
ASK1 = ASK1 (Homo sapiens, UniProt Q99683)
BRSK1 = BRSK1 (Homo sapiens, UniProt Q8TDC3)
BTK = BTK (Homo sapiens, UniProt Q06187)
BUB1 = BUB1 (Homo sapiens, UniProt O43683)
CLK4 = CLK4 (Homo sapiens, UniProt Q9HAZ1)
CSNK1A1 = CSNK1A1 (Homo sapiens, UniProt P48729)
DYRK1A = DYRK1A (Homo sapiens, UniProt Q13627)
GRK4 = GRK4 (Homo sapiens, UniProt P32298)
GSK3A = GSK3A (Homo sapiens, UniProt P49840)
HPK1 = HPK1 (Homo sapiens, UniProt Q92918)
INSRR = INSRR (Homo sapiens, UniProt P14616)
JNK2 = JNK2 (Homo sapiens, UniProt P45984)
MAP3K1 = MAP3K1 (Homo sapiens, UniProt Q13233)
MAPKAPK2 = MAPKAPK2 (Homo sapiens, UniProt P49137)
MEK1 = MEK1 (Homo sapiens, UniProt Q02750)
MLK2 = MLK2 (Homo sapiens, UniProt Q02779)
NDR1 = NDR1 (Homo sapiens, UniProt Q15208)
NEK7 = NEK7 (Homo sapiens, UniProt Q8TDX7)
PIK3CA(M1043I) = PIK3CA(M1043I) (Homo sapiens, UniProt P42336, M1043I)
SRC = SRC (Homo sapiens, UniProt P12931)
TAOK1 = TAOK1 (Homo sapiens, UniProt Q7L7X3)
TIE1 = TIE1 (Homo sapiens, UniProt P35590)
TNK2 = TNK2 (Homo sapiens, UniProt Q07912)
TXK = TXK (Homo sapiens, UniProt P42681)
WEE1 = WEE1 (Homo sapiens, UniProt P30291)
WEE2 = WEE2 (Homo sapiens, UniProt P0C1S8)
YSK4 = YSK4 (Homo sapiens, UniProt Q56UN5)
p38-beta = p38-beta (Homo sapiens, UniProt Q15759)
p38-gamma = p38-gamma (Homo sapiens, UniProt P53778)

Sequence of INSRR (P14616 whole entry): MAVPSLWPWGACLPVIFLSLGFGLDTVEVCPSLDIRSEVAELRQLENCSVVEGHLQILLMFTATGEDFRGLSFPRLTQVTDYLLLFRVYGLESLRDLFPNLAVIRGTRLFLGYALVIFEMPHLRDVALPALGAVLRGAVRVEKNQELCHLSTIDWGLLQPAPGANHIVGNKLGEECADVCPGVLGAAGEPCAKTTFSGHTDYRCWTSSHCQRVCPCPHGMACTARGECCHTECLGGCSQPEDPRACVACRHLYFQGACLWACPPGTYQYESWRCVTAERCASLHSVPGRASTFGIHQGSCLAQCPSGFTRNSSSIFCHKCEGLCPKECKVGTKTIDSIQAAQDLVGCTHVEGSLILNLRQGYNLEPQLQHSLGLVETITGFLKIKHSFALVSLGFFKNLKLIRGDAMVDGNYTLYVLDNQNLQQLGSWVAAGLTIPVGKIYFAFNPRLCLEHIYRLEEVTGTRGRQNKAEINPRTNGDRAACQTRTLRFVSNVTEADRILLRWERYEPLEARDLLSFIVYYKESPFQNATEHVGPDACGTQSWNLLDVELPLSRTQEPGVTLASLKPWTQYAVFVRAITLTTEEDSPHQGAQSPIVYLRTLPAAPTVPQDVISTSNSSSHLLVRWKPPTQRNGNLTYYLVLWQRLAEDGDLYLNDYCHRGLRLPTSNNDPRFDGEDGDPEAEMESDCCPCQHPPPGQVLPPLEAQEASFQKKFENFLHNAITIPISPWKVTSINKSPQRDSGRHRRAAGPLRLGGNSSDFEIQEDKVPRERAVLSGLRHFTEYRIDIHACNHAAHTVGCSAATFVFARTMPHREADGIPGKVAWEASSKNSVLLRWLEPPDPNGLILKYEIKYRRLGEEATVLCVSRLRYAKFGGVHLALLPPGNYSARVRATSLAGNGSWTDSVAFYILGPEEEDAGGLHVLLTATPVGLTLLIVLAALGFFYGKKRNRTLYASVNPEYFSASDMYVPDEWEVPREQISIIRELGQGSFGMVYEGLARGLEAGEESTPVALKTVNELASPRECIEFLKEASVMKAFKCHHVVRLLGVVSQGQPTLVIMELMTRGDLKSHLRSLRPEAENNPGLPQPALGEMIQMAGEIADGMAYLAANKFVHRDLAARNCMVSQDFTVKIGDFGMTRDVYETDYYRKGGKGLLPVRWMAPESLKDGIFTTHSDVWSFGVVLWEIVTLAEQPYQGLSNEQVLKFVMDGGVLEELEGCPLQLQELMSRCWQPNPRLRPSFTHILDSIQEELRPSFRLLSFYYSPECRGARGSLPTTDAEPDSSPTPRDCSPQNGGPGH
Sequence of MAP3K1 (Q13233 whole entry): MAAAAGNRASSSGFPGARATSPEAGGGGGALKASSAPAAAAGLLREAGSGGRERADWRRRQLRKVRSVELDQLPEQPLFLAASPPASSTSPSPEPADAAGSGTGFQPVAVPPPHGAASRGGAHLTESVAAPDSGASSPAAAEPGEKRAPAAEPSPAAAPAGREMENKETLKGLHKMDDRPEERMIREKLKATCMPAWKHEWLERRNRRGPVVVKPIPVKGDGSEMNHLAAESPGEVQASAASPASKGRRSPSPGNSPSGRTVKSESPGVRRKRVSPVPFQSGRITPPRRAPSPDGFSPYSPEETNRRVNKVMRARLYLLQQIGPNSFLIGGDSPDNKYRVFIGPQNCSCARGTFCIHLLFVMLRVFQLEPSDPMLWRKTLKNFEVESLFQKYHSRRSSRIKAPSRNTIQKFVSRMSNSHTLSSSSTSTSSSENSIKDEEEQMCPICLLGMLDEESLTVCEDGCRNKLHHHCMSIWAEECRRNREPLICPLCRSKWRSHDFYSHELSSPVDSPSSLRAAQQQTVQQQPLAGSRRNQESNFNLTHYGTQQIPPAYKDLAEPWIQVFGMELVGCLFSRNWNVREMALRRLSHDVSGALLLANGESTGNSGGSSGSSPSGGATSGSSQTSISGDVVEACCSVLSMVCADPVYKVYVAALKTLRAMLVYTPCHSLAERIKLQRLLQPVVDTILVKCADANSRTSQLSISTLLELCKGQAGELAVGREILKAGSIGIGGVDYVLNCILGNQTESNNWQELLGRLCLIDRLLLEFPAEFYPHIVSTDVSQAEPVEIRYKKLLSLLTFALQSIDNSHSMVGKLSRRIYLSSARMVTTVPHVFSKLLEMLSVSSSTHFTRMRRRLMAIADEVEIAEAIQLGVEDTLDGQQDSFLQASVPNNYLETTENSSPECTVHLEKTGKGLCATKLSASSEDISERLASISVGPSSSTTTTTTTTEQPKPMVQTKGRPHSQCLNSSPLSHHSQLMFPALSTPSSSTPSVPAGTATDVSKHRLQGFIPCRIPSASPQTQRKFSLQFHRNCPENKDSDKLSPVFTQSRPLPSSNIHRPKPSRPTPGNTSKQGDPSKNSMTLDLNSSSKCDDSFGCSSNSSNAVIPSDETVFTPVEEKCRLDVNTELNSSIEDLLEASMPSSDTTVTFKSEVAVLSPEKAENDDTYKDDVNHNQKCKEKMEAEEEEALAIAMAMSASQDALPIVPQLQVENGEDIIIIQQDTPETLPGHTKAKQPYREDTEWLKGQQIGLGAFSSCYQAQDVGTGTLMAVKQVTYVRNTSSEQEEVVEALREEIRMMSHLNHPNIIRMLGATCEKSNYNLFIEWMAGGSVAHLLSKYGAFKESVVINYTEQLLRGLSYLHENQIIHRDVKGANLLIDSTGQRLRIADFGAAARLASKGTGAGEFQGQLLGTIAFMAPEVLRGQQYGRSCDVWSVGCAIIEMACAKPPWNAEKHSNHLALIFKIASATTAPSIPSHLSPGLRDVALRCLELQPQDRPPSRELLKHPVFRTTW
Sequence of MLK2 (Q02779 whole entry): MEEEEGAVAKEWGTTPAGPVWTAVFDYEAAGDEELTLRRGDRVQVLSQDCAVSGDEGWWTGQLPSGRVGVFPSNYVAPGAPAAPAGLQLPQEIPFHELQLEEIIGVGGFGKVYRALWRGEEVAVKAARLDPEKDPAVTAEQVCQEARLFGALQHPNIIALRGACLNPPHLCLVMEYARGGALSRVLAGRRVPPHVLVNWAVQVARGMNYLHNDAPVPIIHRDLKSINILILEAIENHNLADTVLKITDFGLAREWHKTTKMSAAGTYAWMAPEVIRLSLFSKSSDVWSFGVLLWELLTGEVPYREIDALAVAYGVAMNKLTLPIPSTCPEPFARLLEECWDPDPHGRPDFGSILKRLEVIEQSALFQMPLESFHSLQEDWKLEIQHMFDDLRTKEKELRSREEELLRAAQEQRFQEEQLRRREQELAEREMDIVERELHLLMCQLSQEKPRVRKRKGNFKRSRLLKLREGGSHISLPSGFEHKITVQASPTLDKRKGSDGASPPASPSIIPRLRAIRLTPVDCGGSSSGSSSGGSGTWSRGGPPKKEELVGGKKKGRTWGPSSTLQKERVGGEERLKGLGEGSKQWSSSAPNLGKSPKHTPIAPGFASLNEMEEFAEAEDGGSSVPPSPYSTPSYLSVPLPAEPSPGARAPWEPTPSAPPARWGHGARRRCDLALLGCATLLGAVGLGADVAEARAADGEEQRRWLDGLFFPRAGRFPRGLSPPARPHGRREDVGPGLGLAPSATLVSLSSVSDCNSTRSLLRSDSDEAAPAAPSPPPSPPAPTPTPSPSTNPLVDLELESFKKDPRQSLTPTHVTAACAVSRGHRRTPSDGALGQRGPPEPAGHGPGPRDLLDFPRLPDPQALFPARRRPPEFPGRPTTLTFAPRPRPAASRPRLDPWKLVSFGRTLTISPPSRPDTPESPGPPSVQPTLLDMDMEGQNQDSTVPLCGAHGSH
Sequence of BTK (Q06187 whole entry): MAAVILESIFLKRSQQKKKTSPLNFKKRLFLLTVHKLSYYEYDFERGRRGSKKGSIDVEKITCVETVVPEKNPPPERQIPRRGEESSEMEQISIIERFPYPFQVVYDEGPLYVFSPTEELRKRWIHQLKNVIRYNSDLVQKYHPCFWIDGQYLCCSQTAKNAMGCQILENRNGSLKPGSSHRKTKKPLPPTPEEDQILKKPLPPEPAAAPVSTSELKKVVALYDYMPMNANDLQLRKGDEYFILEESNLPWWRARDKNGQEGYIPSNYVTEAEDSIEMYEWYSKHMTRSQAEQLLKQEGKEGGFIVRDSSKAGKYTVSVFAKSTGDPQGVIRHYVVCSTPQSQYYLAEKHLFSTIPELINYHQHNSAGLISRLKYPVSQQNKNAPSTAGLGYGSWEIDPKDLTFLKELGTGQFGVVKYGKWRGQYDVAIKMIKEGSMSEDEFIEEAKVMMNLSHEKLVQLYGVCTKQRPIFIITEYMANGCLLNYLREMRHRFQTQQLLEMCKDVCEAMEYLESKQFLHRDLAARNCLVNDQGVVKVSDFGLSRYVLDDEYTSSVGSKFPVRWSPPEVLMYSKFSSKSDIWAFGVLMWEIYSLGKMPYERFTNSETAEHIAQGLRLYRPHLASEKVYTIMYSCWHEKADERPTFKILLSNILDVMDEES
Sequence of p38-beta (Q15759 whole entry): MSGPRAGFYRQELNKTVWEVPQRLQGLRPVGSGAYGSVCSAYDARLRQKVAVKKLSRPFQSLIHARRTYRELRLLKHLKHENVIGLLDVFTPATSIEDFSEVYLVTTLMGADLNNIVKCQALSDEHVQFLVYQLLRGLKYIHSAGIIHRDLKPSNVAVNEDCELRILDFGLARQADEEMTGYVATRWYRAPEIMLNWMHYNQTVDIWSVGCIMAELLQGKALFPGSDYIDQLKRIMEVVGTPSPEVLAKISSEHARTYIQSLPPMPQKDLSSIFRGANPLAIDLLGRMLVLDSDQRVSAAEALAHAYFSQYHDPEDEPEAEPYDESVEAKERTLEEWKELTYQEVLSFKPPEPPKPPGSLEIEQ
Sequence of NEK7 (Q8TDX7 whole entry): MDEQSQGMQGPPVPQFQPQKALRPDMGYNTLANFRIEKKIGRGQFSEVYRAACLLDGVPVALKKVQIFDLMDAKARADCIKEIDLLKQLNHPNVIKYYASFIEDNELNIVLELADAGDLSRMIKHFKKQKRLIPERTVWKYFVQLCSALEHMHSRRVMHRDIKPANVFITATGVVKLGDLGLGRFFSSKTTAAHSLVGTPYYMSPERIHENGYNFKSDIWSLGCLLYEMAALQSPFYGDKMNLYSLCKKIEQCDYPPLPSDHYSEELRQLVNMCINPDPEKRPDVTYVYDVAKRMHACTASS

CNc1ncc2cc(-c3ccc(-c4cccc(C)n4)cc3Cl)c(=O)n(C[C@H]3OC[C@H](N)CO3)c2n1 [compound 6, G-5555]
Percent Control (ACVR2B): 100%
Percent Control (AMPK-alpha1): 95%
Percent Control (ANKK1): 91%
Percent Control (ASK1): 99%
Percent Control (BRSK1): 100%
Percent Control (BTK): 87%
Percent Control (BUB1): 100%
Percent Control (CLK4): 97%
Percent Control (CSNK1A1): 100%
Percent Control (DYRK1A): 100%
Percent Control (GRK4): 100%
Percent Control (GSK3A): 100%
Percent Control (HPK1): 78%
Percent Control (INSRR): 100%
Percent Control (JNK2): 100%
Percent Control (MAP3K1): 81%
Percent Control (MAPKAPK2): 100%
Percent Control (MEK1): 24%
Percent Control (MLK2): 100%
Percent Control (NDR1): 97%
Percent Control (NEK7): 100%
Percent Control (PIK3CA(M1043I)): 76%
Percent Control (SRC): 100%
Percent Control (TAOK1): 100%
Percent Control (TIE1): 100%
Percent Control (TNK2): 92%
Percent Control (TXK): 100%
Percent Control (WEE1): 98%
Percent Control (WEE2): 100%
Percent Control (YSK4): 70%
Percent Control (p38-beta): 97%
Percent Control (p38-gamma): 100%
